In ChEMBL document CHEMBL1201862, “PubChem BioAssay data set” (2004):
Active and inactive are the calls of the source.

Assays:
[1] = target: DNA dC->dU-editing enzyme APOBEC-3A (Homo sapiens, UniProt P31941); experiment: Dose Response confirmation of small molecule APOBEC3A DNA Deaminase Inhibitors via a fluorescence-based single-stranded DNA deaminase assay. [Related pubchem assays (depositor defined):AID493011, AID493024]; format: functional
[2] = target: DNA dC->dU-editing enzyme APOBEC-3G (Homo sapiens, UniProt Q9HC16); format: functional;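 note: Dose-response counterscreen measuring inhibition of APOBEC3G DNA deaminase activity, run while confirming APOBEC3A inhibitors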
Sequence of DNA dC->dU-editing enzyme APOBEC-3G (Q9HC16 whole entry): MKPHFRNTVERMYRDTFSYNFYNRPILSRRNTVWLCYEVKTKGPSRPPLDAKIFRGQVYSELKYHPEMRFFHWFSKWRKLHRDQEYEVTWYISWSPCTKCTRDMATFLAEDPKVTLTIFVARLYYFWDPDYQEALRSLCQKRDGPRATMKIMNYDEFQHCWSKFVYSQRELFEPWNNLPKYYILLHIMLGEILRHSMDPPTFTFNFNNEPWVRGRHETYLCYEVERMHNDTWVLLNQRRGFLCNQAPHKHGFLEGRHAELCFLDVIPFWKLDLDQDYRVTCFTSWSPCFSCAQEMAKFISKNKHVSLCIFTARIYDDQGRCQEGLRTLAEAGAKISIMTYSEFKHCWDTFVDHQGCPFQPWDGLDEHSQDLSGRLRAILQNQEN

[3] = target: Voltage-dependent T-type calcium channel subunit alpha-1H (Homo sapiens, UniProt O95180); experiment: human CACNA1H calcium influx blockade – cell-based, synthetic library set 1, calcium flux (AID 493022); format: functional
Sequence of Voltage-dependent T-type calcium channel subunit alpha-1H (O95180 whole entry, the tested form may be a part): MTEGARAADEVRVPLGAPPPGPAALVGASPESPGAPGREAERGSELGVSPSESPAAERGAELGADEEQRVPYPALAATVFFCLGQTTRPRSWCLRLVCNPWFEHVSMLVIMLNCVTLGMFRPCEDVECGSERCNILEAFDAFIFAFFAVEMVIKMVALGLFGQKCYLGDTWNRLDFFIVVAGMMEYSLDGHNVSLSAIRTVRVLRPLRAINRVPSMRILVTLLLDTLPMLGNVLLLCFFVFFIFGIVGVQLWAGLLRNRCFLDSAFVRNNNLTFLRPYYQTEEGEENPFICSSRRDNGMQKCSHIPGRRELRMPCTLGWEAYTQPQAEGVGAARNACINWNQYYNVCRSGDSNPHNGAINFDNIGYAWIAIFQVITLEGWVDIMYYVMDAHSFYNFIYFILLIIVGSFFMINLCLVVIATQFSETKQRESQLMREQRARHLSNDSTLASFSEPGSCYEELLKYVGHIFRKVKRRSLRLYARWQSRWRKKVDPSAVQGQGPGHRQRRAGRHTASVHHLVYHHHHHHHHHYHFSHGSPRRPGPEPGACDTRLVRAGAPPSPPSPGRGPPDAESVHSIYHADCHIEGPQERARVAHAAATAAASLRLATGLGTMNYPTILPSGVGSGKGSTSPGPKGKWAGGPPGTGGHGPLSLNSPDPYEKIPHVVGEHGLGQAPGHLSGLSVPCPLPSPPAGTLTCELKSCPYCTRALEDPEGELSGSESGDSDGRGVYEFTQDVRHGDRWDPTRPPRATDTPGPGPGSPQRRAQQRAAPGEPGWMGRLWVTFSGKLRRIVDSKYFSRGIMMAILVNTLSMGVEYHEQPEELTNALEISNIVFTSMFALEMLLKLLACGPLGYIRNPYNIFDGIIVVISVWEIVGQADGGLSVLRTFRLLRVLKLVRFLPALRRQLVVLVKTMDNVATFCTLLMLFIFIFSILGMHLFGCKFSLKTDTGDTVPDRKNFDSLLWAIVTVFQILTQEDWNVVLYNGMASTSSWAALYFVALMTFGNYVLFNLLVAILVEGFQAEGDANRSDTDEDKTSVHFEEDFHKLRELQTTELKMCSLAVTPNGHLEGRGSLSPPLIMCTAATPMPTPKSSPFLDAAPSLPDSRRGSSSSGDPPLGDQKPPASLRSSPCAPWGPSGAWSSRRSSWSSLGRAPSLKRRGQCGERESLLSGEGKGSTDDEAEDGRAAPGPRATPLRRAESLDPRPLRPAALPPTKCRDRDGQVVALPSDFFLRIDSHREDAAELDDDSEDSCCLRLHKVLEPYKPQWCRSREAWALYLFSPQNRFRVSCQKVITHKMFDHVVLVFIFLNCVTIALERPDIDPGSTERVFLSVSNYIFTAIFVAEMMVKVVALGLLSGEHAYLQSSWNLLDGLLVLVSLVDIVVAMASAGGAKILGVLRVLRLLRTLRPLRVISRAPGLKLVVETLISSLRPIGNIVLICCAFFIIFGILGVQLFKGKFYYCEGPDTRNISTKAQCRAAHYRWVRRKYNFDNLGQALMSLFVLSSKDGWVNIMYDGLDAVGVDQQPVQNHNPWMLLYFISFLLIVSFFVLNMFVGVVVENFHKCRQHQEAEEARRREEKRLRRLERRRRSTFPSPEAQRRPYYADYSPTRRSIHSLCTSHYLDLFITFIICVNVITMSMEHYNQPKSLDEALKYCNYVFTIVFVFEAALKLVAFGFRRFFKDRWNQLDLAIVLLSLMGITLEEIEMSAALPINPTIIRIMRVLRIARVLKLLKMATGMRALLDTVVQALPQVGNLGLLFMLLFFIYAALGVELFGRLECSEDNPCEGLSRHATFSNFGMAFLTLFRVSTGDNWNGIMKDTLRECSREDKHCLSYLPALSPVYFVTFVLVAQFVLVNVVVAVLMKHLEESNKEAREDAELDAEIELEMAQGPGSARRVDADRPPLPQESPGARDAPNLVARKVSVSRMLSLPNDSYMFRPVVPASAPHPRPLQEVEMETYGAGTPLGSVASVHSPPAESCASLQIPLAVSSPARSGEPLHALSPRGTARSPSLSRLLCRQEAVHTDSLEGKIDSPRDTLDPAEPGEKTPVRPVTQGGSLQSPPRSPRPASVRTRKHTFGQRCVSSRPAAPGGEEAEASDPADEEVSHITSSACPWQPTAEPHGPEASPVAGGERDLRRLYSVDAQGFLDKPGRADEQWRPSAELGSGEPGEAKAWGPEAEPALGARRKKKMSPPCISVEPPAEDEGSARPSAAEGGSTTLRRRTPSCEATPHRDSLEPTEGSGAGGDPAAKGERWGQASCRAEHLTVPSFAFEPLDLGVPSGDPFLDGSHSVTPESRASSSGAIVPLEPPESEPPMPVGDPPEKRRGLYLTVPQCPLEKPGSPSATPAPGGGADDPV

[4] = target: 1-acylglycerol-3-phosphate O-acyltransferase ABHD5/Perilipin-5 (Homo sapiens, UniProt Q00G26+Q8WTS1); experiment: Luminescence-based biochemical high throughput dose response assay for inhibitors of the interaction of the lipase co-activator protein, abhydrolase domain containing 5 (ABHD5) with perilipin-5 (MLDP; PLIN5) (2K validation set). [Related pubchem assays (depositor defined):AID493035, AID493241]
Sequence of 1-acylglycerol-3-phosphate O-acyltransferase ABHD5/Perilipin-5 (Q00G26 whole entry, the tested form may be a part): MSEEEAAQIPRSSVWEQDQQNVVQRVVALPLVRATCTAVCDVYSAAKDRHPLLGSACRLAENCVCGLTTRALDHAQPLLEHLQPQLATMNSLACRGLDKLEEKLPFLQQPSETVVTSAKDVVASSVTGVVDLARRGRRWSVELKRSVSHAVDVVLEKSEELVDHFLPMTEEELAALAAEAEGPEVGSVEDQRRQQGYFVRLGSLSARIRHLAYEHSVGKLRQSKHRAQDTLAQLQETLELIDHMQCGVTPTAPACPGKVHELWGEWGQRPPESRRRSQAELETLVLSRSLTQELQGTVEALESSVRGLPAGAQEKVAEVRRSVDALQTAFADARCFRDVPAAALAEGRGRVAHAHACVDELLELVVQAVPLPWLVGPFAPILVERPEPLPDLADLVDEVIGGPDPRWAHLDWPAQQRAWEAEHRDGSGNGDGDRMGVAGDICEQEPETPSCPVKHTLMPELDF
Sequence of 1-acylglycerol-3-phosphate O-acyltransferase ABHD5/Perilipin-5 (Q8WTS1 whole entry, the tested form may be a part): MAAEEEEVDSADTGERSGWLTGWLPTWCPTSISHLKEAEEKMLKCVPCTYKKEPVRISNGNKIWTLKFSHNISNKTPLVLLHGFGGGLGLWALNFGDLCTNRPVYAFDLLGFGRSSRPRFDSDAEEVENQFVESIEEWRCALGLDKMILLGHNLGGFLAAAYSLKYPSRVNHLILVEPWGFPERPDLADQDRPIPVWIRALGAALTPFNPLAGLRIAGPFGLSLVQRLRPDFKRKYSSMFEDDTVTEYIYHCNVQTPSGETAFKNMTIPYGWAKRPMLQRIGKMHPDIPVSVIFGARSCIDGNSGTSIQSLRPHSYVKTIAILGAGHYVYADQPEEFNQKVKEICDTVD

Perilipin-1/ABHD5 = Perilipin-1/ABHD5 (Homo sapiens, UniProt O60240+Q8WTS1); experiment: Luminescence-based biochemical high throughput dose response assay for inhibitors of the interaction of the lipase co-activator protein, abhydrolase domain containing 5 (ABHD5) with perilipin-1 (PLIN1) (2K validation set). [Related pubchem assays (depositor defined):AID493027, AID493057]
Cytochrome P450 2C9 = Cytochrome P450 2C9 (Homo sapiens, UniProt P11712)
Troponin, cardiac muscle = Troponin, cardiac muscle (Homo sapiens, UniProt P19429+P45379+P63316); experiment: Fluorescence-based biochemical high throughput dose response assay for activators of the calcium sensitivity of cardiac Regulated Thin Filaments (RTF). [Related pubchem assays (depositor defined):AID493008, AID493018, AID504382, AID504383]; format: protein-complex assay
[5] = target: G-protein coupled receptor 55 (Homo sapiens, UniProt Q9Y2T6); experiment: SAR analysis of selective Agonists of GPR55 using an Image-Based Assay - Set 2. [Related pubchem assays (depositor defined):AID1961, AID1965]; format: functional
Sequence of G-protein coupled receptor 55 (Q9Y2T6 whole entry): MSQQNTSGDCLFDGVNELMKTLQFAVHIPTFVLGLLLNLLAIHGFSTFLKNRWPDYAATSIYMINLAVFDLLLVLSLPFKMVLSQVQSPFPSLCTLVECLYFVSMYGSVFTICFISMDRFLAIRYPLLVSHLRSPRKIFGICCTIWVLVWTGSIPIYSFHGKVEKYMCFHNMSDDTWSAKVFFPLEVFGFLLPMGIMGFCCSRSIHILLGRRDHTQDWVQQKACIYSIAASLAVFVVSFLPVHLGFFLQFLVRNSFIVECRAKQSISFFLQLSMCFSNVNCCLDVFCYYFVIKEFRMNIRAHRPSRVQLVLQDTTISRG

Cannabinoid receptor 2 [6] = target: T1, Cannabinoid receptor 2 (Homo sapiens, UniProt P34972); experiment: SAR analysis of antagonists of the Cannabinoid Receptor 2 using an Image-Based Assay - Set 2. [Related pubchem assays (depositor defined):AID1961, AID1965]; format: functional
T1 sequence (P34972 whole entry): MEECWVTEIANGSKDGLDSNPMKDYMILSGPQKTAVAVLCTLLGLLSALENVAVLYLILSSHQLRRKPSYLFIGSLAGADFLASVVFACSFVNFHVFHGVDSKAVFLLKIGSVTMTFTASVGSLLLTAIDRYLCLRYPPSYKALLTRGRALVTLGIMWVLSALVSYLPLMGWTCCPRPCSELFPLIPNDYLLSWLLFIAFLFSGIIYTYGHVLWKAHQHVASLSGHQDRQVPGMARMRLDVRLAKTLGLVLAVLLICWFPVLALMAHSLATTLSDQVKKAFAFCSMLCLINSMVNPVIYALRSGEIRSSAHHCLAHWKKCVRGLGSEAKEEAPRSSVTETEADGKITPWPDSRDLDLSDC

Cannabinoid receptor 2 [7] = target: T1, Cannabinoid receptor 2; experiment: SAR analysis of agonists of the Cannabinoid Receptor 2 using an Image-Based Assay - Set 2. [Related pubchem assays (depositor defined):AID1961, AID1965]; format: functional
Cannabinoid receptor 1 [8] = target: T2, Cannabinoid receptor 1 (Homo sapiens, UniProt P21554); experiment: SAR analysis of agonists of the Cannabinoid Receptor 1 using an Image-Based Assay - Set 3. [Related pubchem assays (depositor defined):AID1961, AID1965]; format: functional
T2 sequence (P21554 whole entry): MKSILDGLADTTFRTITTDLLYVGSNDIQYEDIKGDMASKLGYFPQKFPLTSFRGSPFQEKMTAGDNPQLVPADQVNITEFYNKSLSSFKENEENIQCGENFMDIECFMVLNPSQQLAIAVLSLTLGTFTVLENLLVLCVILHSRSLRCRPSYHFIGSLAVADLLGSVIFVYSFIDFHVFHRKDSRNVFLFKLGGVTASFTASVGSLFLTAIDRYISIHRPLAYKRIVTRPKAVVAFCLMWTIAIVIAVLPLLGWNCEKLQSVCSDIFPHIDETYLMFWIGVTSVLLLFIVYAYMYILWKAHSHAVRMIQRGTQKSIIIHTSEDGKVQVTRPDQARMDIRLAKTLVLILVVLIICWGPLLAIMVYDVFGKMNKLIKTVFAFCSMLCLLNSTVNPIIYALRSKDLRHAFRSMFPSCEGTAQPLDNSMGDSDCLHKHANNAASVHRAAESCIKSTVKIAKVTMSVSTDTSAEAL

[9] = target: T3, G-protein coupled receptor 35 (Homo sapiens, UniProt Q9HC97); experiment: SAR analysis of Agonists of the GPR35 Receptor using an Image-Based Assay - Set 3. [Related pubchem assays (depositor defined):AID1961, AID1965]; format: functional
T3 sequence (Q9HC97 whole entry): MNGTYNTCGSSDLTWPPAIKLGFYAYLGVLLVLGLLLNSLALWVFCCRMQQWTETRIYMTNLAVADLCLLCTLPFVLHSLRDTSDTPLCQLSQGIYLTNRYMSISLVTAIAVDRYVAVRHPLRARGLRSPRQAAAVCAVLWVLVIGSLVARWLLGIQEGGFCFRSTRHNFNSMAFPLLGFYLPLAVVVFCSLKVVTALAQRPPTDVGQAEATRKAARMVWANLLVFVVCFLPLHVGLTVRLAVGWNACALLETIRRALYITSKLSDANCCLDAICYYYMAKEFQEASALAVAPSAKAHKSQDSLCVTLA

[10] = target: T3, G-protein coupled receptor 35; experiment: SAR analysis of Antagonists of the GPR35 Receptor using an Image-Based Assay - Set 4. [Related pubchem assays (depositor defined):[…]]; format: functional
Cannabinoid receptor 1 [11] = target: T2, Cannabinoid receptor 1; experiment: SAR analysis of antagonists of the Cannabinoid Receptor 1 using an Image-Based Assay - Set 3. [Related pubchem assays (depositor defined):AID1961, AID1965]; format: functional

CCc1ccc(OCC(=O)N/N=C\c2ccco2)c([N+](=O)[O-])c1
IC50 [1]: 18.6 µM (active)
IC50 [2]: 39.8 µM (active)

O=C(COc1ccccc1F)Nc1nnc(-c2ccc(F)cc2)o1
EC50 [3]: 10 µM (active)

CC1=CC(=O)c2ccccc2C1=O [MENADIONE]
IC50 [4]: 9.47 µM (active)
IC50 (Perilipin-1/ABHD5): 7.9 µM (active)
AC50 (Cytochrome P450 2C9): 6.31 µM (inconclusive)

O=C(/C=C/c1nc2ccccc2s1)N1CCCCCC1
EC50 (Troponin, cardiac muscle): > 71.5 µM (inactive)

CCOc1ccccc1N1CCN(C(=O)c2cc(S(=O)(=O)N(C)C)ccc2N2CCCC2)CC1
EC50 [5]: > 32 µM (inactive)
IC50 (Cannabinoid receptor 2 [6]): > 32 µM (inactive)
EC50 (Cannabinoid receptor 2 [7]): > 32 µM (inactive)
EC50 (Cannabinoid receptor 1 [8]): > 32 µM (inactive)
EC50 [9]: > 32 µM (inactive)
IC50 [10]: > 32 µM (inactive)
IC50 (Cannabinoid receptor 1 [11]): > 32 µM (inactive)
